SMILES strings stand for the structures.

The assay concerns the target T1, Cystathionine beta-synthase (Homo sapiens, UniProt P35520).
T1 sequence (P35520 whole entry): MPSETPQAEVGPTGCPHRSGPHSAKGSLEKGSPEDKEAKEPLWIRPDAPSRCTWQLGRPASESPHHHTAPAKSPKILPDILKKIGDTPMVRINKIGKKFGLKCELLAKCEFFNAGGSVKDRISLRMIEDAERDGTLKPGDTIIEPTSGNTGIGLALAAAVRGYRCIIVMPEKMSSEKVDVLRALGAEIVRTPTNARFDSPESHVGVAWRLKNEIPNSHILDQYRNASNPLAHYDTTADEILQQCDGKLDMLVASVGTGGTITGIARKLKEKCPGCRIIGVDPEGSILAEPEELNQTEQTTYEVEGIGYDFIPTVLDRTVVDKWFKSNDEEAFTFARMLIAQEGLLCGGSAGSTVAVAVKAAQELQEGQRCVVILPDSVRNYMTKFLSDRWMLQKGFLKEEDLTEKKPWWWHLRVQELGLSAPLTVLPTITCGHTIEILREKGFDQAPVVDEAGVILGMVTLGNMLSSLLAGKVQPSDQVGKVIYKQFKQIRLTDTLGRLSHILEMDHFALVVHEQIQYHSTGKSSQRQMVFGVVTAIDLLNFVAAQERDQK
The assay can be described thus: Inhibition of full-length wild-type cystathionine beta-synthase (unknown origin) assessed as inhibition of H2S production by fluorescence assay in presence of S-adenosylmethionine.
As usually defined, the IC50 is the point on the concentration scale where inhibition reaches its midpoint. As to `C[C@@]12CCC(=O)c3coc(c31)C(=O)c1cc3cccc(OS(=O)(=O)O)c3cc12`, the IC50 came to 136 µM.

For the molecule `COc1cc(/C=C2\NC(=S)NC2=O)ccc1OC(C)=O`, the IC50 was 83 µM.

Consider `NC(=O)c1cc(Br)c(Br)[nH]1`, for which the IC50 was determined as 156 µM.

Turning to `O=C1NC(=S)N/C1=C\c1ccc(O)c(O)c1`, the IC50 is 125 µM.

Turning to `COc1cc(/C=C2\N=C(SC)N(C)C2=O)ccc1O`, the IC50 was 87 µM.

For `O=C1C=C(c2cc(Br)c(O)c(Br)c2)/C(=C/c2cc(Br)c(O)c(Br)c2)O1` [RUBROLIDE A], the IC50 stood at 108 µM.

On to `O=C1NC(=S)N/C1=C\c1ccccc1`, for which the IC50 was 170 µM.

On to `COc1cc(/C=C2\NC(=S)NC2=O)ccc1O`, for which the concentration for half-maximal inhibition (IC50) was 187 µM.

For the origin of these results see ChEMBL document CHEMBL3399996, “Marine natural products as inhibitors of cystathionine beta-synthase activity” (Bioorg Med Chem Lett, 2015).
